The assay deals with T1, PE-labeled human PD-L1-Ig binding to Jurkat cell line over-expressing human PD-1 (Jurkat-PD-1) (Homo sapiens, UniProt Q15116).
T1 construct: expressed in transfected cells; host or cells: Jurkat
Kind of assay: Jurkat-PD-1 Cell Binding High-Content Screening Assay (CBA): Method 1. Conditions: Jurkat-hPD-1 cells, PE-labeled PD-L1-Ig 20 nM final.

The mark [1] stands for this setting: read-out: Jurkat HPDL1 PD1 IC50 (uM) (Method 1).

Like-named read-outs stand apart in the source and are kept apart here. Bridge positions count the residues as written; N and C are the ends. Square brackets hold non-standard residues; d marks the D form. Peptide text beside a SMILES is read from it. * marks the point of attachment. ξ: configuration not given here. Phe(3-CF3) = N[C@@H](Cc1cccc(C(F)(F)F)c1)C(=O)O; Ala(morpholin-4-yl) = N[C@@H](CN1CCOCC1)C(=O)O; Phe(4-COOH) = N[C@@H](Cc1ccc(C(=O)O)cc1)C(=O)O; Trp(6-F) = N[C@@H](Cc1c[nH]c2cc(F)ccc12)C(=O)O; Phe(4-CH2NH2) = NCc1ccc(C[C@H](N)C(=O)O)cc1; Bip = N[C@@H](Cc1ccc(-c2ccccc2)cc1)C(=O)O; Phe(3-CN) = N#Cc1cccc(C[C@H](N)C(=O)O)c1; Phe(4-CN) = N#Cc1ccc(C[C@H](N)C(=O)O)cc1; Phe(3-Me) = Cc1cccc(C[C@H](N)C(=O)O)c1; 4Pal = N[C@@H](Cc1ccncc1)C(=O)O; Cha = N[C@@H](CC1CCCCC1)C(=O)O; Cit = NC(=O)NCCC[C@H](N)C(=O)O; Thr(3ξ) = CC(O)[C@H](N)C(=O)O; Carboxymethyl = O=C(O)C*; NMeA = CN[C@@H](C)C(=O)O; Orn = NCCC[C@H](N)C(=O)O; Dab = NCC[C@H](N)C(=O)O; Dap = NC[C@H](N)C(=O)O; ξC = NC(CS)C(=O)O; Acm = CC(=O)NC*

Results on 14 molecules are retold here after patent US20240409585A1, “MACROCYCLIC IMMUNOMODULATORS” (priority 2021, published 2024).

T1 sequence (Q15116 25-288): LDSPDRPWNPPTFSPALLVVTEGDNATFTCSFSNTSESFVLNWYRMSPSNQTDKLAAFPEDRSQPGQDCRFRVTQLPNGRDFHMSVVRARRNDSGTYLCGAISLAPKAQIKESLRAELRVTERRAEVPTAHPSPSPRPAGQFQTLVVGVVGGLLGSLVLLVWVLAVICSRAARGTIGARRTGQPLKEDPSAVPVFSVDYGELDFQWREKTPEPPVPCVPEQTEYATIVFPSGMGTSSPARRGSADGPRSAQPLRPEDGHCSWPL

For `CC(C)C[C@H]1NC(=O)[C@H](C)N(C)C(=O)[C@H](CCC(N)=O)NC(=O)[C@H](Cc2ccc(-c3ccccc3)cc2)NC(=O)[C@H](Cc2ccc(C(=O)O)cc2)NC(=O)[C@H](Cc2cccc(C(F)(F)F)c2)NC(=O)[C@H](CC(N)=O)NC(=O)[C@H](Cc2ccc(OCC(=O)O)cc2)NC(=O)[C@H](CN2CCOCC2)NC(=O)CSC[C@@H](C(=O)N[C@@H](CCN)C(N)=O)NC(=O)[C@H](CCCN)NC(=O)[C@H](C(C)C)NC(=O)[C@H](CC2CCCCC2)NC(=O)[C@H](CCN)NC1=O` [Example 2280] ({CH2CO}-[Ala(morpholin-4-yl)]Y(Carboxymethyl)N[Phe(3-CF3)][Phe(4-COOH)][Bip]Q[NMeA][dL][Dab][Cha]V[Orn]C[Dab]-NH2; thioether N-14), the IC50 (in general, the point on the concentration scale where inhibition reaches its midpoint) under setting [1] worked out at 0.14 µM.
As for `CC(C)C[C@@H]1NC(=O)[C@H](CCN)NC(=O)[C@@H](CC(C)C)NC(=O)[C@H](C)N(C)C(=O)[C@H](CCCNC(=N)N)NC(=O)[C@H](Cc2ccc(-c3ccccc3)cc2)NC(=O)[C@H](C(C)C)NC(=O)[C@H](Cc2c[nH]c3ccccc23)NC(=O)[C@H](CC(=O)O)NC(=O)[C@H](Cc2ccncc2)NC(=O)[C@H](CC(N)=O)NC(=O)CSC[C@@H](C(=O)N[C@@H](C)C(N)=O)NC(=O)[C@H]([C@@H](C)O)NC(=O)[C@H](C(C)C)NC1=O` [Compound 1146] ({CH2CO}-N[4Pal]DWV[Bip]R[NMeA][dL][Dab]LVTCA-NH2; thioether N-14), the IC50 under setting [1] was 0.06 µM.
Molecule `Cc1cccc(C[C@@H]2NC(=O)[C@H](CC(=O)O)NC(=O)[C@H](Cc3ccc(OCC(=O)O)cc3)NC(=O)[C@H](Cc3ccncc3)NC(=O)CSC[C@@H](C(=O)N[C@@H](C)C(N)=O)NC(=O)[C@H](CO)NC(=O)[C@H](Cc3ccccc3)NC(=O)[C@H](CC(C)C)NC(=O)[C@H](CC(N)=O)NC(=O)[C@@H](CC(C)C)NC(=O)[C@H](C)N(C)C(=O)[C@H](Cc3ccccc3)NC(=O)[C@H](Cc3ccc(-c4ccccc4)cc3)NC(=O)[C@H](CC(C)C)NC2=O)c1` [Compound 1588] ({CH2CO}-[4Pal]Y(Carboxymethyl)D[Phe(3-Me)]L[Bip]F[NMeA][dL]NLFSCA-NH2; thioether N-14) showed an IC50 (Jurkat HPDL1 PD1 IC50 (uM) (Method 1)) of 0.32 µM.
Take `CC(C)C[C@@H]1NC(=O)[C@H](CCCNC(=N)N)NC(=O)[C@@H](CC(C)C)NC(=O)[C@H](C)N(C)C(=O)[C@H](CCCNC(=N)N)NC(=O)[C@H](Cc2ccc(-c3ccccc3)cc2)NC(=O)[C@H](C(C)C)NC(=O)[C@H](Cc2c[nH]c3cc(F)ccc23)NC(=O)[C@H](CC(=O)O)NC(=O)[C@H](Cc2ccc(O)cc2)NC(=O)[C@H](Cc2ccccc2)NC(=O)CSC[C@@H](C(=O)N[C@@H](C)C(N)=O)NC(=O)[C@H]([C@@H](C)O)NC(=O)[C@H](C(C)C)NC1=O` [Compound 1079] ({CH2CO}-FYD[Trp(6-F)]V[Bip]R[NMeA][dL]RLVTCA-NH2; thioether N-14): under setting [1], the IC50 was determined as 0.25 µM.
As to `Cc1cccc(C[C@@H]2NC(=O)[C@H](CC(=O)O)NC(=O)[C@H](Cc3ccc(OCC(=O)O)cc3)NC(=O)[C@H](C(C)O)NC(=O)CSC[C@@H](C(=O)N[C@@H](CO)C(=O)O)NC(=O)[C@H](C(C)O)NC(=O)[C@H](C(C)C)NC(=O)[C@H](CC3CCCCC3)NC(=O)[C@H](CCN)NC(=O)[C@@H](CC(C)C)NC(=O)[C@H](C)N(C)C(=O)[C@H](Cc3ccc(OCC(=O)O)cc3)NC(=O)[C@H](Cc3ccc(-c4ccccc4)cc3)NC(=O)[C@H](Cc3ccc(C(=O)O)cc3)NC2=O)c1` (stereo partly drawn) [Compound 2231] ({CH2CO}-[Thr(3ξ)]Y(Carboxymethyl)D[Phe(3-Me)][Phe(4-COOH)][Bip]Y(Carboxymethyl)[NMeA][dL][Dab][Cha]V[Thr(3ξ)]CS-OH; thioether N-14), under setting [1], the IC50 came to 0.02 µM.
In the case of `CC(C)C[C@@H]1NC(=O)[C@H](CCN)NC(=O)[C@@H](CC(C)C)NC(=O)[C@H](C)N(C)C(=O)[C@H](CCC(=O)O)NC(=O)[C@H](Cc2ccc(-c3ccccc3)cc2)NC(=O)[C@H](C(C)C)NC(=O)[C@H](Cc2c[nH]c3ccccc23)NC(=O)[C@H](CC(=O)O)NC(=O)[C@H](Cc2ccc(OCC(=O)O)cc2)NC(=O)[C@H](Cc2ccc(OCC(=O)O)cc2)NC(=O)CSC[C@@H](C(=O)N[C@@H](C)C(N)=O)NC(=O)[C@H](CO)NC(=O)[C@H](C(C)C)NC1=O` [Compound 1577] ({CH2CO}-Y(Carboxymethyl)Y(Carboxymethyl)DWV[Bip]E[NMeA][dL][Dab]LVSCA-NH2; thioether N-14), under setting [1], the IC50 is 0.03 µM.
Still for that read-out and setting: in the case of `CC(C)C[C@@H]1NC(=O)[C@H](Cc2c[nH]c3ccccc23)NC(=O)[C@H](CC(=O)O)NC(=O)[C@H](Cc2ccc(O)cc2)NC(=O)[C@H](Cc2ccccc2)NC(=O)CSC[C@@H](C(=O)N[C@@H](C)C(N)=O)NC(=O)[C@H](CO)NC(=O)[C@H](C(C)C)NC(=O)[C@H](CC(C)C)NC(=O)[C@H](CCCNC(=N)N)NC(=O)[C@@H](C)NC(=O)[C@H](C)N(C)C(=O)[C@H](CCCNC(=N)N)NC(=O)[C@H](Cc2ccc(-c3ccccc3)cc2)NC1=O` [Compound 1782] ({CH2CO}-FYDWL[Bip]R[NMeA][dA]RLVSCA-NH2; thioether N-14) it was 0.08 µM; in that of `CC(C)C[C@@H]1NC(=O)[C@H](CCCNC(=N)N)NC(=O)[C@@H](CC(C)C)NC(=O)[C@H](C)N(C)C(=O)[C@H](CCCNC(=N)N)NC(=O)[C@H](Cc2ccc(-c3ccccc3)cc2)NC(=O)[C@H](C(C)C)NC(=O)[C@H](Cc2c[nH]c3ccccc23)NC(=O)[C@H](CC(=O)O)NC(=O)[C@H](Cc2ccc(CN)cc2)NC(=O)[C@H](Cc2ccccc2)NC(=O)CSC[C@@H](C(=O)N[C@@H](C)C(N)=O)NC(=O)[C@H]([C@@H](C)O)NC(=O)[C@H](C(C)C)NC1=O` [Compound 1083] ({CH2CO}-F[Phe(4-CH2NH2)]DWV[Bip]R[NMeA][dL]RLVTCA-NH2; thioether N-14), 0.25 µM; in that of `CC(=O)NCSC[C@@H]1NC(=O)[C@H](CC(C)C)NC(=O)[C@H](CC(N)=O)NC(=O)[C@@H](CC(C)C)NC(=O)[C@H](C)N(C)C(=O)[C@H](CSCNC(C)=O)NC(=O)[C@H](Cc2ccc(-c3ccccc3)cc2)NC(=O)[C@H](CC(C)C)NC(=O)[C@H](Cc2cccc(C)c2)NC(=O)[C@H](CC(=O)O)NC(=O)[C@H](Cc2ccncc2)NC(=O)[C@H](Cc2ccc(OCC(=O)O)cc2)NC(=O)CSCC(C(=O)NCC(N)=O)NC(=O)[C@H](CO)NC1=O` (stereo partly drawn) [Compound 1886] ({CH2CO}-Y(Carboxymethyl)[4Pal]D[Phe(3-Me)]L[Bip]C(Acm)[NMeA][dL]NLC(Acm)S[ξC]G-NH2; thioether N-14), 0.14 µM.
Regarding `CC(C)C[C@@H]1NC(=O)[C@H](CCN)NC(=O)[C@@H](CC(C)C)NC(=O)[C@H](C)N(C)C(=O)[C@H](CCCNC(=N)N)NC(=O)[C@H](Cc2ccc(-c3ccccc3)cc2)NC(=O)[C@H](C(C)C)NC(=O)[C@H](Cc2c[nH]c3ccccc23)NC(=O)[C@H](CC(=O)O)NC(=O)[C@H](Cc2ccc(C#N)cc2)NC(=O)[C@H](CC(N)=O)NC(=O)CSC[C@@H](C(=O)N[C@@H](C)C(N)=O)NC(=O)[C@H]([C@@H](C)O)NC(=O)[C@H](C(C)C)NC1=O` [Compound 1306] ({CH2CO}-N[Phe(4-CN)]DWV[Bip]R[NMeA][dL][Dab]LVTCA-NH2; thioether N-14), the IC50 under setting [1] was determined as 0.05 µM.
For the molecule `CC(C)C[C@@H]1NC(=O)[C@H](CCCCN)NC(=O)[C@@H](CC(C)C)NC(=O)[C@H](C)N(C)C(=O)[C@H](CCCNC(N)=O)NC(=O)[C@H](Cc2ccc(-c3ccccc3)cc2)NC(=O)[C@H](C(C)C)NC(=O)[C@H](Cc2c[nH]c3ccccc23)NC(=O)[C@H](CC(=O)O)NC(=O)[C@H](Cc2ccc(O)cc2)NC(=O)[C@H](CC(N)=O)NC(=O)CSC[C@@H](C(=O)N[C@@H](C)C(N)=O)NC(=O)[C@H](CO)NC(=O)[C@H](C(C)C)NC1=O` [Compound 1473] ({CH2CO}-NYDWV[Bip][Cit][NMeA][dL]KLVSCA-NH2; thioether N-14), the IC50 under setting [1] came to 0.04 µM.
With `Cc1cccc(C[C@@H]2NC(=O)[C@H](CC(=O)O)NC(=O)[C@H](Cc3ccc(OCC(=O)O)cc3)NC(=O)[C@H](CN)NC(=O)CSC[C@@H](C(N)=O)NC(=O)[C@H](CC(N)=O)NC(=O)[C@H](C(C)C)NC(=O)[C@H](CC3CCCCC3)NC(=O)[C@H](CCN)NC(=O)[C@@H](CC(C)C)NC(=O)[C@H](C)N(C)C(=O)[C@H](Cc3ccc(OCC(=O)O)cc3)NC(=O)[C@H](Cc3ccc(-c4ccccc4)cc3)NC(=O)[C@H](Cc3ccc(OCC(=O)O)cc3)NC2=O)c1` [Compound 1648] ({CH2CO}-[Dap]Y(Carboxymethyl)D[Phe(3-Me)]Y(Carboxymethyl)[Bip]Y(Carboxymethyl)[NMeA][dL][Dab][Cha]VNC-NH2; thioether N-14), under setting [1], the IC50 was found to be 0.03 µM.
Regarding `CC(C)C[C@@H]1NC(=O)[C@H](CCN)NC(=O)[C@@H](CC(C)C)NC(=O)[C@H](C)N(C)C(=O)[C@H](CCCNC(=N)N)NC(=O)[C@H](Cc2ccc(-c3ccccc3)cc2)NC(=O)[C@H](C(C)C)NC(=O)[C@H](Cc2c[nH]c3ccccc23)NC(=O)[C@H](CC(=O)O)NC(=O)[C@H](Cc2cccc(C#N)c2)NC(=O)[C@H](CC(N)=O)NC(=O)CSC[C@@H](C(=O)N[C@@H](C)C(N)=O)NC(=O)[C@H]([C@@H](C)O)NC(=O)[C@H](C(C)C)NC1=O` [Compound 1308] ({CH2CO}-N[Phe(3-CN)]DWV[Bip]R[NMeA][dL][Dab]LVTCA-NH2; thioether N-14), the IC50 under setting [1] is 0.11 µM.
As to `Cc1cccc(C[C@@H]2NC(=O)[C@H](CC(=O)O)NC(=O)[C@H](Cc3ccc(OCC(=O)O)cc3)NC(=O)[C@H](CN)NC(=O)CSCC(C(N)=O)NC(=O)[C@H](CO)NC(=O)[C@H](C(C)C)NC(=O)[C@H](CC(C)C)NC(=O)[C@H](CC(N)=O)NC(=O)[C@@H](CC(C)C)NC(=O)[C@H](C)N(C)C(=O)[C@H](C(C)C)NC(=O)[C@H](Cc3ccc(-c4ccccc4)cc3)NC(=O)[C@H](CC(C)C)NC2=O)c1` (stereo partly drawn) [Compound 1597] ({CH2CO}-[Dap]Y(Carboxymethyl)D[Phe(3-Me)]L[Bip]V[NMeA][dL]NLVS[ξC]-NH2; thioether N-14), under setting [1], the IC50 worked out at 0.05 µM.
